Experimental data as given in paper PMC12516379, “Rotamer-Controlled Self-Immolative Linkers Enable Tunable Release of Neurosteroid Oxime Prodrugs” (ACS Medicinal Chemistry Letters, 2025).

What was measured:
[1] = Stability in acetate buffer pH 5.0 at room temperature via HPLC (UV); format: physicochemical
Procedure, shortened: (§1)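 Progesterone prodrugs dissolved at 1 mg/mL in PBS (pH 7.03) or 10 mM acetate buffer (pH 5.0), kept at RT and reinjected over time, HPLC-UV AUC at 254 nm. Percent parent remaining; k from ln(%remaining) vs time, pseudo-first-order t1/2 = 0.693/k; duplicates averaged.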

[2] = Stability in PBS at room temperature via HPLC (UV); format: physicochemical; settings: phosphate-buffered saline (DPBS)
Procedure, shortened: as §1

[3] = PBS stability assay at 37 °C via LC-MS/MS; format: physicochemical; settings: 37 °C; for half-life at 3 µM: pH 7.03, PBS
Method: (§10) To address this, prodrug stability was further evaluated in human plasma at 37 °C using liquid chromatography–tandem mass spectrometry (LC-MS/MS). For direct comparison, a parallel screen was conducted in PBS under identical conditions (Table ). To prevent premature degradation prior to LC-MS/MS analysis, acetonitrile containing formic acid was used as a quenching solution to acidify and stabilize the prodrugs in vials. […] This limitation in detection, along with the need for a more uniform and broadly applicable assessment across all compounds, prompted us to monitor the formation of the parent oxime as an alternative readout.
(§11) Stability experiments in human plasma and PBS were performed via liquid chromatography-tandem mass spectrometry (LC-MS/MS) to determine and compare rate of cleavage of progesterone prodrugs as well as selected allopregnanolone prodrugs (3 µM) when incubated at 37 °C. All experiments were performed in duplicate and results are presented as the average of two experimental replicates.

[4] = Plasma stability assay at 37 °C via LC-MS/MS, human plasma; format: in vitro ADME; settings: for half-life at 3 µM: human, plasma;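 as to all read-outs here: prodrugs at 3 µM incubated in human plasma at 37 °C, intact prodrug quantified by LC-MS/MS over time, values are means of duplicate runs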
Method: as §10, §11

[5] = Plasma stability assay via LC-MS/MS, rat plasma; format: in vitro ADME; settings: read-out: t1/2 in rat plasma (Table S19) (converted)
Method: (§2) Building on our observation that rotamer control in the steric series can be modulated by enzymatic stabilization or activation, we next evaluated whether this effect was species dependent. To investigate this, we performed comparative stability studies by incubating select prodrugs (20a, 20b, 20l and 20t; Figure ) in mouse and rat plasma – two of the most commonly used preclinical species in drug development. This approach allowed us to assess the potential influence of species-specific enzymes on rotamer equilibria and, by extension, prodrug activation rates. The self-immolation profiles for the sterically tuned linker series (20a–b) reveal discernible, species-dependent differences prodrug stability. […] While the precise biochemical drivers remain unclear, this observation warrants further investigation beyond the scope of this work.
(§3) 1.2 Stability in Plasma and PBS via LCMS
(§4) Procaine (positive control) was purchased from Sigma-Aldrich. HPLC grade MeCN, MeOH, H2O, and FA were purchased from Fischer Scientific. Human plasma (cat. No. […]- […]
(§5) 0102242) were obtained from BIOIVT. DPBS 1X (no calcium, no magnesium, pH = 7.03) was purchased from Thermo Fischer Scientific. Stock solutions were prepared in 100% DMSO, and suitable dilutions of target analytes were prepared in 0.1% FA /MeCN for method development.
(§6) For PBS assay Gibco® Dulbecco’s phosphate-buffered saline (DPBS 1X, no calcium, no magnesium, pH = 7.03) was utilized. All experiments were performed in duplicate and results are presented as the average of two experimental replicates.
(§7) Procedure for Plasma Stability Assay
(§8) Test compounds and positive control (i.e. procaine) were dissolved in DMSO to make a 10 mM stock solution and subsequently diluted to 500 μM in 50% MeCN and PBS. This intermediate stock solution was prepared and added immediately prior to the start of each test compound experiment. Plasma was thawed at ambient temperature and aliquoted (663.0 μL) into 1.5 mL Eppendorf tubes. Plasma was incubated at 37 °C for 10 minutes in an incubator shaker at 150 rpm, and the reactions were initiated by addition of the test compound or positive control (4.0 µL, 3 μM). The spiked plasma samples were incubated at 37 °C. For designated time points, 75 µL aliquots were removed from the incubation mixture and immediately quenched in 150 µL of MeCN/0.1%FA with internal standard (ISTD, 2 µM d 5-7-ethoxy coumarin). […] The supernatant was transferred to an LC-MS vial and analyzed by LC/MS-MS. […]
(§9) LC–MS/MS analysis was performed using an Agilent 1260 Infinity II HPLC, coupled with an Agilent G6460 triple quadrupole mass spectrometer (Agilent Technologies, USA). All the data were acquired employing Agilent 6460 Quantitative Analysis data processing software. […]

[6] = Plasma stability assay via LC-MS/MS, mouse plasma; format: in vitro ADME; settings: read-out: t1/2 in mouse plasma (Table S20) (converted)
Method: as §2, §3, §4, §5, §6, §7, §8, §9

CNCCN(C)C(=O)O/N=C(\C)[C@H]1CC[C@H]2[C@@H]3CCC4=CC(=O)CC[C@]4(C)[C@H]3CC[C@]12C [20a]
half-life at 1 mg/mL ([1]; pH 5, acetate buffer pH 5.0, RT, 1 mg/mL, HPLC 254 nm, read-out: t1/2 in acetate buffer at RT (Tables S5-S8) (converted)): > 168 h
half-life at 1 mg/mL ([1]; pH 5, acetate buffer pH 5.0, rt, HPLC (UV), read-out: Half-life (t½) pH 5.0 rt (converted)): > 168 h
half-life at 1 mg/mL ([1]; pH 5, acetate buffer pH 5.0, rt, read-out: t½: pH 5.0, rt (Table S23) (converted)): > 168 h
half-life at 1 mg/mL ([2]; pH 7.03, DPBS pH 7.03, RT, 1 mg/mL, HPLC 254 nm, read-out: t1/2 in PBS buffer at RT (Tables S1-S4) (converted)): 46.9 ± 0.77 h
half-life at 1 mg/mL ([2]; pH 7.03, PBS, rt, HPLC (UV), read-out: Half-life (t½) PBS rt (converted)): 46.9 h
half-life at 1 mg/mL ([2]; pH 7.03, PBS, rt, read-out: t½: PBS, rt (Table S23) (converted)): 46.9 h
PBS, 37 °C %rem. at 2h (Table S23) ([3]; PBS, 2 h): 77%
half-life at 3 µM ([3]; phosphate-buffered saline (DPBS), 3 µM, LC-MS/MS, read-out: t1/2 in PBS at 37 °C (Tables S14-S17) (converted)): 8.07 h
half-life at 3 µM ([3]; phosphate-buffered saline (DPBS), LC-MS/MS, read-out: Half-life (t½) PBS 37°C (converted)): 8.07 h
half-life at 3 µM ([3]; phosphate-buffered saline (DPBS), read-out: PBS, 37 °C t½ (Table S23) (converted)): 8.07 h
half-life at 3 µM ([3]; phosphate-buffered saline (DPBS), read-out: t1/2 (h) PBS, 37 °C (Tables S25, S26) (converted)): 8.07 h
remaining at 2 h, 3 µM ([3]; phosphate-buffered saline (DPBS), pH 7.03, PBS, 2 h, read-out: % Remaining @ 2h, PBS, 37 °C (Tables S25, S26)): 77%
t1/2 in human plasma at 37 °C (Tables S10-S13, S18) ([4]; 3 µM, LC-MS/MS): 2.45 h
Plasma, 37 °C %rem. at 2h (Table S23) ([4]; 2 h): 73%
half-life at 3 µM ([4]; 3 µM, LC-MS/MS, read-out: t1/2 in human plasma at 37 °C (Tables S10-S13, S18) (converted)): 3.14 h
half-life at 3 µM ([4]; LC-MS/MS, read-out: Half-life (t½) Plasma 37°C (converted)): 2.49 h
half-life at 3 µM ([4]; read-out: Plasma, 37 °C t½ (Table S23) (converted)): 2.45 h
half-life at 3 µM [5]: 3.88 h
half-life at 3 µM [6]: 4.7 h
